Reference: US9462803B2, “Organ preservation and/or perfusion” (Philadelphia College of Osteopathic Medicine, priority 2005, dated 2016)
“Also recorded” adds a separate entry of the source. Where no end group is shown, it is not given here.

Assays:
rat aortic endothelium = assay: NO release from rat aortic endothelium; settings: basal 2.12±0.39
Method: FIG. 7 is a graph showing NO release from rat aortic endothelium in untreated (basal) segments compared to PKC ε peptide inhibitor treated segments (1, 5, and 10 μM).
FIG. 7 illustrates the NO release from rat aortic endothelium in untreated (basal) segments compared to PKC ε peptide inhibitor treated segments (1-10 μM). Acetylcholine (Ach) (10 μM) was used as a positive control. […] Although augmenting endothelial derived NO is usually associated with cardioprotection following I/R, it is speculated that the enzyme responsible for endothelial NO release (eNOS) may shift its product profile to the production of superoxide release when the substrate (L-arginine) or co-factor (BH4) is not readily available during early reperfusion.

[1] = system: isolated perfused rat hearts; assay: Isolated perfused rat heart ischemia/reperfusion (I/R) cardiac function, with or without PMNs; settings: for cardioprotection: I/R+PMN
Method: Male Sprague Dawley rats (275-325 g, Ace Animals, Boyertown, Pa.) were anesthetized with 60 mg/kg pentobarbital sodium intraperitoneally (i.p.). Sodium heparin (1,000 U) was also administered i.p. The hearts were rapidly excised, the ascending aortas were cannulated, and retrograde perfusion of the heart was initiated with a modified Krebs buffer maintained at 37° C. at a constant pressure of 80 mmHg. The Krebs buffer had the following composition (in mmol/l): 17 dextrose, 120 NaCl, 25 NaHCO3, 2.5 CaCl2, 0.5 EDTA, 5.9 KCl, and 1.2 MgCl2. The perfusate was aerated with 95% O2 and 5% CO2 and equilibrated at a pH of 7.3-7.4. The two side arms in the perfusion line proximal to the heart inflow cannula allowed PMNs, plasma without PKC ε peptide inhibitor (control hearts) or plasma containing different concentrations of PKC ε peptide inhibitor (1 or 5 μM) to be directly infused into the coronary inflow line. Coronary flow was monitored by a flow meter (T106, Transonic System, Inc., Ithaca, N.Y.). LVDP and +dP/dtmax were monitored using a pressure transducer (SPR-524, Millar Instruments, Inc., Houston, Tex.), which was positioned in the left ventricular cavity. Hearts were immersed in a water-jacketed reservoir containing 160 mL of Krebs buffer maintained at 37° C. Coronary flow, LVDP and +dP/dtmax were recorded using a Powerlab Station acquisition system (ADInstruments, Grand Junction, Colo.) in conjunction with a computer.
LVDP, +dP/dtmax, and coronary flow were measured every 5 min for 15 min to equilibrate the hearts and obtain a baseline measurement. LVDP was defined as left ventricular end-systolic pressure minus left ventricular end-diastolic pressure. After 15 min, the flow of the Krebs buffer was reduced to zero for 20 min to induce global ischemia. At reperfusion, hearts were infused for 5 min with 200×10^6 PMN resuspended in 5 mL of Krebs buffer plus 5 mL of plasma at a rate of 1 mL/min. In some experiments, PKC ε peptide inhibitor (Genemed Synthesis, Inc., San Francisco, Calif.) was added to plasma at a final concentration of 1 or 5 μM. Sham I/R hearts were not subjected to ischemia and were not perfused with PMNs.
The following groups of isolated perfused rat hearts were used:
Group 1: Sham I/R hearts were not subjected to ischemia and were not perfused with PMNs, but were perfused with 5 mL of plasma (1 mL/min) at 35 minutes into perfusion (the same time point that I/R hearts would be given 5 mL of plasma, 15 minutes of baseline recordings plus 20 minutes ischemia). These hearts represented a control group to determine if the isolated rat heart can maintain LVDP and +dP/dtmax throughout the 80-minute protocol (n=6).
Group 2: Sham I/R+PKC ε peptide inhibitor (5 μM) hearts were not subjected to ischemia and not perfused with PMNs. These hearts were administered the PKC ε peptide inhibitor (5 μM, dissolved in plasma from a 5 mM stock in H2O) 35 minutes into perfusion. This group was employed to determine if the PKC ε peptide inhibitor causes a cardiotonic or cardiodepressant effect (n=6).
Group 3: I/R hearts were subjected to 20 min of ischemia and perfused with 5 mL of plasma (1 mL/min) during the first 5 min of reperfusion, but were not perfused with PMNs. These hearts represented a control group to determine if 20 min of ischemia followed by reperfusion stunned the heart, but LVDP and +dP/dtmax will recover to baseline values (initial) by the end of the 45-minute reperfusion period (n=7).
Group 4: I/R+PKC ε peptide inhibitor (5 μM, dissolved in plasma) hearts were subjected to 20 min of ischemia and not perfused with PMNs. These hearts were perfused with 5 mL of plasma+PKC ε peptide inhibitor during the first 5 min of reperfusion. This group was employed to determine if the PKC ε peptide inhibitor causes a cardiodepressant effect in the setting of I/R without PMNs (n=6). […]

[2] = I/R hearts without PMNs + inhibitor 5 μM
[3] = Sham I/R hearts (no ischemia, no PMNs) + inhibitor 5 μM, end of 80 min perfusion

In the case of “PKC ε peptide inhibitor: Peptide inhibitor of PKC ε (Genemed Synthesis); preferred sequence EAVSLKPT (SEQ ID NO: 1), preferably myristoylated at the N-terminus (not fully specified (N-terminus); listed as Homo sapiens)”, the NO release (rat aortic endothelium; 5 μM, p<0.05) is reported as 0.66±0.28 pmoles/mg tissue, the NO release (rat aortic endothelium; 10 μM) is reported as 0.26±0.42 pmoles/mg tissue and the “change in +dP/dtmax, initial vs final” value [1, 2] is reported as “no significant difference”. For the same substance, the “change in LVDP, initial vs final” value [1, 2] was “no significant difference”, the “final LVEDP” value ([1]; I/R+PMN+inhibitor (5 μM), end of 45 min reperfusion, p<0.01 vs I/R+PMN) was 16±2 mmHg and the cardioprotection ([1]; 1 μM dose) was “not cardioprotective”. For the same substance, the cardioprotection ([1]; 5 μM dose) was “most cardioprotective”, the “change in +dP/dtmax, initial vs final” value [1, 3] was “did not show any significant change; also recorded: no significant difference” and the “change in LVDP, initial vs final” value [1, 3] was “did not show any significant change; also recorded: no significant difference”. For the same substance, the “direct effect on cardiac contractile function” value ([1]; Sham I/R hearts, 5 μM) was “no direct effect”.
